In patent US20100022491A1, “4-HYDROXY-2-OXO-2,3-DIHYDRO-1,3-BENZOTHIAZOL-7YL COMPOUNDS FOR MODULATION OF B2-ADRENORECEPTOR ACTIVITY” (ASTRAZENECA AB, priority 2006, published 2010):
Counter-ions that a name gives are not always drawn.

How the values were obtained:
[1] = target: T1, Adrenergic β2 (Homo sapiens, UniProt P07550); test: Adrenergic β2 mediated cAMP production in H292 cells; assay type: cell-based; conditions: for EC50: H292 cells, cAMP by AlphaScreen, 60 minutes at room temperature, rolipram 300 μM, read-out: β2 pEC50 (converted); for β2 Int Act: Intrinsic Activity as a fraction relative to the maximum activity determined for formoterol
T1 construct: Adherent H292 cells were removed from tissue culture flasks; endogenous in cells; host or cells: H292 cells
T1 sequence (P07550 whole entry): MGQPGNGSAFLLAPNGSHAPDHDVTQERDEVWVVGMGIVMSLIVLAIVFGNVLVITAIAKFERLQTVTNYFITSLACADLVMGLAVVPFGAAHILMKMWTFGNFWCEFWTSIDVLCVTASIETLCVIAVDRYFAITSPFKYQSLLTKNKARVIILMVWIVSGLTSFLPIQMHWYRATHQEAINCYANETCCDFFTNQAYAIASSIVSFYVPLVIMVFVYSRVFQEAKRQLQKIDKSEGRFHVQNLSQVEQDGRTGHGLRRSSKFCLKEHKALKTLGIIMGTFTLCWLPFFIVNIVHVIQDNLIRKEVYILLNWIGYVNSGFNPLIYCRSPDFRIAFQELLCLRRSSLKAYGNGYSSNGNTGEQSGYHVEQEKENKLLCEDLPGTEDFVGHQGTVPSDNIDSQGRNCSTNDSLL
Protocol: Adrenergic β2 mediated cAMP production
H292 cells were grown in 225 cm2 flasks incubator at 37° C., 5% CO2 in RPMI medium containing, 10% (v/v) FBS (foetal bovine serum) and 2 mM L-glutamine.
Adherent H292 cells were removed from tissue culture flasks by treatment with Accutase™ cell detachment solution for 15 minutes. Flasks were incubated for 15 minutes in a humidified incubator at 37° C., 5% CO2. Detached cells were re-suspended in RPMI media (containing 10% (v/v) FBS and 2 mM L-glutamine) at 0.05×10^6 cells per mL. 5000 cells in 100 μL were added to each well of a tissue-culture-treated 96-well plate and the cells incubated overnight in a humidified incubator at 37° C., 5% CO2. The culture media was removed and cells were washed twice with 100 μL assay buffer and replaced with 50 μL assay buffer (HBSS solution containing 10 mM HEPES pH7.4 and 5 mM glucose). Cells were rested at room temperature for 20 minutes after which time 25 μL of rolipram (1.2 mM made up in assay buffer containing 2.4% (v/v) dimethylsulphoxide) was added. Cells were incubated with rolipram for 10 minutes after which time test compounds were added and the cells were incubated for 60 minutes at room temperature. The final rolipram concentration in the assay was 300 μM and final vehicle concentration was 1.6% (v/v) dimethylsulphoxide. The reaction was stopped by removing supernatants, washing once with 100 μL assay buffer and replacing with 50 μL lysis buffer. The cell monolayer was frozen at −80° C. for 30 minutes (or overnight).
The concentration of cAMP (cyclic adenosine monophosphate) in the cell lysate was determined using AlphaScreen™ methodology. The frozen cell plate was thawed for 20 minutes on a plate shaker then 10 μL of the cell lysate was transferred to a 96-well white plate. 40 μL of mixed AlphaScreen™ detection beads pre-incubated with biotinylated cAMP, was added to each well and the plate incubated at room temperature for 10 hours in the dark. The AlphaScreen™ signal was measured using an EnVision spectrophotometer (Perkin-Elmer Inc.) with the recommended manufacturer's settings. cAMP concentrations were determined by reference to a calibration curve determined in the same experiment using standard cAMP concentrations. Concentration response curves for agonists were constructed and data was fitted to a four parameter logistic equation to determine both the pEC50 and Intrinsic Activity. Intrinsic Activity was expressed as a fraction relative to the maximum activity determined for formoterol in each experiment.

[2] = target: T2, recombinant human adrenergic beta 1 receptors (Homo sapiens, UniProt P08588); test: Adrenergic β1 selectivity binding assay ([125I]-Iodocyanopindolol); conditions: inhibition of [125I]-Iodocyanopindolol (0.036 nM) binding; read-out: β1 bind p IC50 (converted)
T2 construct: purchased Euroscreen
T2 sequence (P08588 whole entry): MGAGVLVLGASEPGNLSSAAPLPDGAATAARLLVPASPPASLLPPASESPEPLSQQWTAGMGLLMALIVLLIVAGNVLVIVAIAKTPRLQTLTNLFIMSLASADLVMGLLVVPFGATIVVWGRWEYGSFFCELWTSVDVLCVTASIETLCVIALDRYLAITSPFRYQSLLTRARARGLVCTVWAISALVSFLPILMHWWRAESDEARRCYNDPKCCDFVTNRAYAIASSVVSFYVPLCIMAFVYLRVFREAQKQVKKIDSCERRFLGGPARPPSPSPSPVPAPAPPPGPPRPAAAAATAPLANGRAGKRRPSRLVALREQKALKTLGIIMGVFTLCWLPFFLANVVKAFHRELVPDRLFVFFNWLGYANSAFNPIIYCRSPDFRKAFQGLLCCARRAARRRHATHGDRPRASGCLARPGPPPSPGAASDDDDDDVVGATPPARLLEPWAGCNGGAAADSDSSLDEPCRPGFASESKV
Protocol: Membranes containing recombinant human adrenergic beta 1 receptors were obtained from Euroscreen. These were diluted in Assay Buffer (50 mM HEPES, 1 mM EDTA, 120 mM NaCl, 0.1% gelatin, pH 7.4) to provide a final concentration of membranes that gave a clear window between maximum and minimum specific binding.
Assays were performed in U-bottomed 96-well polypropylene plates. 10 μL [^125I]-Iodocyanopindolol (0.036 nM final concentration) and 10 μL of test compound (10× final concentration) were added to each test well. For each assay plate 8 replicates were obtained for [^125I]-Iodocyanopindolol binding in the presence of 10 μL vehicle (10% (v/v) DMSO in Assay Buffer; defining maximum binding) or 10 μL Propranolol (10 μM final concentration; defining non-specific binding (NSB)). Membranes were then added to achieve a final volume of 100 μL. The plates were incubated for 2 hours at room temperature and then filtered onto PEI coated GF/B filter plates, pre-soaked for 1 hour in Assay Buffer, using a 96-well plate Tomtec cell harvester. Five washes with 250 μL wash buffer (50 mM HEPES, 1 mM EDTA, 120 mM NaCl, pH 7.4) were performed at 4° C. to remove unbound radioactivity. The plates were dried then sealed from underneath using Packard plate sealers and MicroScint-O (50 μL) was added to each well. The plates were sealed (TopSeal A) and filter-bound radioactivity was measured with a scintillation counter (TopCount, Packard BioScience) using a 3-minute counting protocol.
Total specific binding (B0) was determined by subtracting the mean NSB from the mean maximum binding. NSB values were also subtracted from values from all other wells. […] Data was fitted to a four parameter logistic equation to determine the compound potency, which was expressed as pIC50 (negative log molar concentration inducing 50% inhibition of [^125I]-Iodocyanopindolol binding).

## O=C(CCNCCc1ccccc1)N(CCNCCc1ccc(O)c2[nH]c(=O)sc12)C1Cc2ccccc2C1 [Example 41, N^1-(2,3-Dihydro-1H-inden-2-yl)-N^1-(2-{[2-(4-hydroxy-2-oxo-2,3-dihydro-1,3-benzothiazol-7-yl)ethyl]amino}ethyl)-N^3-(2-phenylethyl)-β-alaninamide bis-trifluoroacetic acid salt]
[1]
  EC50: 31.6 nM
  β2 Int Act: 0.99
[2]
  IC50: 1580 nM

## O=C(CCNCCc1ccc(F)cc1F)N(CCNCCc1ccc(O)c2[nH]c(=O)sc12)C1CCCCCC1 [Example 55, N^1-Cycloheptyl-N^3-[2-(2,4-difluorophenyl)ethyl]-N^1-(2-{[2-(4-hydroxy-2-oxo-2,3-dihydro-1,3-benzothiazol-7-yl)ethyl]amino}ethyl)-β-alaninamide bis-trifluoroacetic acid salt]
[1]
  EC50: 10 nM
  β2 Int Act: 0.81
[2]
  IC50: 2510 nM

## CC(C)(CO)CN(CCNCCc1ccc(O)c2[nH]c(=O)sc12)C(=O)CCNCCc1cccc(Cl)c1 [Example 66, N^3-[2-(3-Chlorophenyl)ethyl]-N^1-(3-hydroxy-2,2-dimethylpropyl)-N^1-(2-{[2-(4-hydroxy-2-oxo-2,3-dihydro-1,3-benzothiazol-7-yl)ethyl]amino}ethyl)-β-alaninamide bis-trifluoroacetic acid salt]
[1]
  EC50: 12.6 nM
  β2 Int Act: 0.59
[2]
  IC50: 1580 nM

## O=C(CCNCCc1cccc(O)c1)N(CCNCCc1ccc(O)c2[nH]c(=O)sc12)C1CCCCCC1 [Example 37, N-Cycloheptyl-N-(2-{[2-(4-hydroxy-2-oxo-2,3-dihydro-1,3-benzothiazol-7-yl)ethyl]amino}ethyl)-N^3-[2-(3-hydroxyphenyl)ethyl]-β-alaninamide bis-trifluoroacetic acid salt]
[1]
  EC50: 1 nM
  β2 Int Act: 0.91
[2]
  IC50: 3980 nM

## O=C(CCNCCc1ccccc1Cl)N(CCNCCc1ccc(O)c2[nH]c(=O)sc12)C1CCCCC1 [Example 17, N^3-[2-(2-Chlorophenyl)ethyl]-N-cyclohexyl-N-(2-{[2-(4-hydroxy-2-oxo-2,3-dihydro-1,3-benzothiazol-7-yl)ethyl]amino}ethyl)-β-alaninamide bis-trifluoroacetic salt]
[1]
  EC50: 1.58 nM
  β2 Int Act: 0.90
[2]
  IC50: 3160 nM

## O=C(CCNCCc1cccc(O)c1)N(CCNCCc1ccc(O)c2[nH]c(=O)sc12)C1CCCCC1 [Example 71, N^1-Cyclohexyl-N^1-(2-{[2-(4-hydroxy-2-oxo-2,3-dihydro-1,3-benzothiazol-7-yl)ethyl]amino}ethyl)-N^3-[2-(3-hydroxyphenyl)ethyl]-β-alaninamide bis-trifluoroacetic acid salt]
[1]
  EC50: 0.398 nM
  β2 Int Act: 0.97
[2]
  IC50: 3980 nM

## O=C(CCNCCc1cccc(F)c1)N(CCNCCc1ccc(O)c2[nH]c(=O)sc12)C1CCCCCC1 [Example 36, N-Cycloheptyl-N^3-[2-(3-fluorophenyl)ethyl]-N-(2-{[2-(4-hydroxy-2-oxo-2,3-dihydro-1,3-benzothiazol-7-yl)ethyl]amino}ethyl)-β-alaninamide bis-trifluoroacetic acid salt]
[1]
  EC50: 2.51 nM
  β2 Int Act: 0.84
[2]
  IC50: 3160 nM

## O=C(CCNCCc1cccs1)N(CCNCCc1ccc(O)c2[nH]c(=O)sc12)C1CCCCCC1 [Example 52, N^1-Cycloheptyl-N^1-(2-{[2-(4-hydroxy-2-oxo-2,3-dihydro-1,3-benzothiazol-7-yl)ethyl]amino}ethyl)-N^3-[2-(2-thienyl)ethyl]-β-alaninamide bis-trifluoroacetic acid salt]
[1]
  EC50: 3.16 nM
  β2 Int Act: 0.92
[2]
  IC50: 1580 nM

## O=C(CCNCCc1ccc(Cl)c(Cl)c1)N(CCNCCc1ccc(O)c2[nH]c(=O)sc12)C1CCOCC1 [Example 24, N^3-[2-(3,4-Dichlorophenyl)ethyl]-N-(2-{[2-(4-hydroxy-2-oxo-2,3-dihydro-1,3-benzothiazol-7-yl)ethyl]amino}ethyl)-N-(tetrahydro-2H-pyran-4-yl)-β-alaninamide bis-trifluoroacetic acid salt]
[1]
  EC50: 7.94 nM
  β2 Int Act: 0.77
[2]
  IC50: 2000 nM
